Assay results from patent US12629415B2, “Vaccine adjuvants” (THE PROVOST, FELLOWS, FOUNDATION SCHOLARS, AND THE OTHER …, priority 2018, dated 2026).
Entries after “also recorded” stand apart in the source; their conditions may differ.

Key:
PBMCs or CBMCs [1] = test: HEK-Blue TNFα assay on supernatants; assay type: cell-based, human; conditions: CBMCs compared with PBMCs; 4, 8 or 24 hours
Procedure: (§1) Poly(I:C) (5 μg/ml) (Invivogen), Poly(dA:dT) (5 μg/ml) (Sigma-Aldrich), 2′3′ cGAMP (10 μg/ml), 5′ triphosphate double stranded RNA (5′ ppp dsRNA) (2.5 μg/ml) and HSV-60 (2 μg/ml) (all from Invivogen) were transfected into PBMCs or CBMCs using TransIT-X2 (Mirus).
(§2) Measurement of cytokines—HEK Blue TNFα/IFNα/β Assays were performed as per the manufacturer's (Invivogen) instructions using Quanti-Blue Detection Reagent. SEAP levels were determined using a spectrophotometer plate reader at 630 nm. IFNα (3425-1H-6, Mabtech) and IP-10 (DY266, R&D Systems) were detected by sandwich ELISA. IFNα ELISA used pan specific IFNα antibodies, which allows detection of IFNα subtypes 1/13, 2, 4, 5, 6, 7, 8, 10, 14, 16 and 17. BioLegend LEGENDplex™ Human Inflammation Panel (13-plex) was carried out as per manufacturer's (Biolegend) instructions to determine levels of IFNγ, IL-10, IL-12p70 and IL-23. A BD LSR Fortessa cell analyser was used to acquire samples and BioLegend LEGENDplex™ software was used for analysis.

PBMCs or CBMCs [2] = test: IFNα sandwich ELISA on supernatants; assay type: cell-based, human; conditions: for IFNα secretion (ELISA): CBMCs compared with PBMCs, 8 or 24 h
Procedure: as §1, §2

[3] = system: adult PBMCs or neonatal CBMCs; test: HEK-Blue IFNα/β SEAP assay on supernatants of stimulated mononuclear cells; assay type: cell-based, human; conditions: for innate immune response in neonatal and/or paediatric blood: compared with adult blood, summary statement
Procedure: Isolation of mononuclear cells and monocytes—Primary PBMCs or CBMCs were isolated from healthy human blood or cord blood. Monocytes were isolated by negative selection using Monocyte Isolation Kit II (Miltenyi). […] Cells were cultured at 37° C., 5% CO2, 95% air in RPMI-1640, with stable 2.5 mM L-glutamine and 0.5 mM sodium pyruvate with 10% FBS (all from Sigma-Aldrich).
as §1, §2

bovine PBMCs = test: Bovine IFN-γ ELISA on stimulated PBMCs; assay type: cell-based, cattle; conditions: calves <1 year old; ConA 1 μg/ml with or without LPS 100 pg/ml; 72 hours
Procedure: Bovine peripheral blood mononuclear cells were isolated from whole blood samples collected in 9m1 vacutainers containing Heparin anticoagulant. PBMCs were spun and separated using leucosep tubes (Cruinn) and a density gradient histopaque 1077 (Sigma-Aldrich) at a speed of 1200 g for 20 minutes. Red blood cell contamination was eliminated using sterile 0.25% sodium chloride (Baxter) as a lysis buffer. The cells were subsequently washed twice in PBS at a speed of 600 g for 10 minutes to remove impurities.
Cells were counted using a haemocytometer, microscope and trypan blue (Sigma Aldrich) and seeded at appropriate densities in tissue culture plates (Cruinn) containing media. The cells were incubated at 37° C. at 5% CO2 treated within hours of plating to avoid unwanted cell death.
When analysing the effects of IL-1β on T cell activation, cells were pre-treated with 250 μg/ml of IL-1 receptor antagonist (IL-1Ra) 40 minutes before stimulation with IL-1β (25 ng/ml). Cells were subsequently stimulated with concanavalin A (1 μg/ml) 1 hour after addition of IL-1β. Similarly, when analysing the effects of polydA:dT on T cell activation, cells were stimulated with polydA:dT (1 μg/ml) 1 hour before ConA treatment (1 μg/ml). LPS (100 pg/ml) primed cells were incubated with YVAD-FMK (10 μm), an inhibitor specific for caspase-1. After 40 minutes, the cells were stimulated with alum (50 μg/ml) for 24 hours and supernatants were then harvested and analysed by ELISA for IL-1β
Capture antibodies (50 μl/well), diluted in the appropriate buffers, were dispensed into the wells of high binding plates (Greiner Bio-One) and incubated overnight at room temperature or 4° C. For analysis of IL-17, the ELISA plates were pre-coated with capture antibody by the manufacturing before delivery. The wells were washed with PBS/Tween 3 times and the plates were then incubated with 150 μl of blocking buffer for 1 hour at room temperature. The plates were washed again before supernatant (neat or diluted) and recombinant standards were added for 1 hour at room temperature. Following this, the plates were washed and 50 μl of detection antibody was added to the wells for a period of 1 or 2 hours at room temperature. After washing, 50 μl diluted streptavidin-HRP was added to the plate for between 30 minutes and 1 hour. After the final wash, 50 μl of 3,3′-, 5,5′-Tetramethylbenzidine (TMB) substrate was added and the plates were incubated in the dark. The reaction was stopped by addition of 1M sulphuric acid and the absorbance readings were measured at 450 nm using a microtitre plate reader. The cytokine concentrations were calculated using a linear regression standard curve from recombinant cytokines of known concentration. Skanit™ software was used to estimate values.

PBMCs or CBMCs [4] = test: Quantitative RT-PCR of TNFα, IFNα and CXCL10 mRNA; assay type: cell-based, human; conditions: CBMCs vs PBMCs
Procedure: as §1
Quantitative RT-PCR—Total RNA from PBMCs or CBMCs was extracted using trizol extraction as previously described (16) and was reverse transcribed using MMLV Reverse Transcriptase (Promega) according to the manufacturer's protocol. This cDNA served as template for amplification of target genes, along with the ‘housekeeping’ gene βActin, by real-time PCR with SensiFast SYBR Green (Bioline) to determine the relative amounts of CXCL10, IFNα and TNFα mRNA. The ABI 7900HT system (Applied Biosystems) was used for real-time PCR, and the cycling threshold method (2^−(ΔΔCt)) was used for relative quantification by comparative method after normalization to βActin expression.

PBMCs or CBMCs [5] = test: BioLegend LEGENDplex Human Inflammation Panel; assay type: cell-based; conditions: CBMCs and PBMCs; Poly(I:C) 24 h, LPS 4 h, CpG ODN 24 h
Procedure: as §1, §2

PBMCs or CBMCs [6] = test: CXCL10 (IP-10) ELISA; assay type: cell-based, human; conditions: CBMCs compared with PBMCs
Procedure: as §1, §2

IRF3 = test: TransAM IRF3 activation assay on nuclear extracts; assay type: cell-based, human; conditions: CBMCs
Procedure: (§3) IRF3/7 activation—Active Motif TransAM™ IRF3 and IRF7 assays were carried out on nuclear extracts from PBMCs or CBMCs, harvested as per manufacturer's (Active Motif) instructions, to detect and quantify IRF3 or IRF7 activation.

[7] = system: mononuclear cells from cord blood, children's blood or adult blood; test: HEK-Blue IFNα/β and TNFα assays on mononuclear cells of cord blood, children and adults; assay type: cell-based, human; conditions: transfection 24 h, 4-24 months, 2-5 years, 6-11 years
Description: Umbilical cord blood samples were obtained from term births following normal pregnancy, labour and delivery at National Maternity Hospital (NMH), Holles St, Dublin 2. […] Venous blood from infants, children and adolescents of various ages was collected during elective surgical procedures where no indication of infection was present (such as hydrocele repair, umbilical hernia repair, onychocryptosis, orchipexy repair) in Our Lady's Children's Hospital Crumlin (OLCHC), Dublin 12. […] Volumes drawn were age and weight dependent, according to standard, approved guidelines. Ethics approval was obtained from the Ethics Committees of NMH and OLCHC and informed consent was obtained from each subject or their parent/guardian. Adult blood samples were from healthy adults, supplied by the Irish Blood Transfusion Service. • Poly(I:C), Poly(dA:dT) and cGAMP were obtained from Invivogen • Poly (dA:dT) is a repetitive synthetic double-stranded DNA sequence of poly(dA-dT)-poly(dT-dA) http://www.invivopen.com/poly-dadt-naked • Poly (I:C) comprises long strands of inosine poly(I) homopolymer annealed to strands of cytidine poly(C) homopolymer http://www.invivogen.com/polyic-hmw. • cGAMP is cyclic [G(2′,5′)pA(3′,5′)p]; Formula: […], 2Na Methodology
Isolation of mononuclear cells and monocytes—Primary PBMCs or CBMCs were isolated from healthy human blood or cord blood. Monocytes were isolated by negative selection using Monocyte Isolation Kit II (Miltenyi). Monocyte purity was assessed using CD14 staining and was routinely 85-95%. Cells were cultured at 37° C., 5% CO2, 95% air in RPMI-1640, with stable 2.5 mM L-glutamine and 0.5 mM sodium pyruvate with 10% FBS (all from Sigma-Aldrich).
as §1, §2

IRF7 = test: TransAM IRF7 activation assay on nuclear extracts; assay type: cell-based, human; conditions: CBMCs; LPS 15 min, CpG 1 h, Poly(I:C) transfection 1 h
Procedure: as §3

Molecule: CCCc1nc2c(N)nc3ccccc3c2s1 [CL075, reference compound]
- TNFα production (PBMCs or CBMCs [1]): no significant difference in TNFα production

Molecule: Nc1nc2c(ncn2[C@@H]2O[C@@H]3COP(=O)(O)O[C@H]4[C@@H](O)[C@H](n5cnc6c(N)ncnc65)O[C@@H]4COP(=O)(O)O[C@@H]2[C@@H]3O)c(=O)[nH]1 [cGAMP, cyclic [G(2′,5′)pA(3′,5′)p]]
- IFNα secretion (ELISA) (PBMCs or CBMCs [2]): CBMCs responded equally well or with enhanced IFNα-production when compared with PBMCs
- level of IFNα produced, relative to Poly(I:C) or Poly(dA:dT) (PBMCs or CBMCs [2]; adult and neonatal cells): lower than that in response to either Poly(I:C) or Poly(dA:dT)
- TNFα production (PBMCs or CBMCs [1]): significantly more TNFα production from neonatal cells than from adult cells
- innate immune response in neonatal and/or paediatric blood [3]: robust innate immune response in neonatal and/or paediatric blood

Molecule: interleukin 1: cytokine interleukin 1 added with ConA [reference compound]
- IFN-γ secretion by ConA stimulated bovine PBMCs (bovine PBMCs): enhanced IFN production

Molecule: polyinosinic-polycytidylic acid [Poly(I:C)]
- CXCL10 mRNA expression (PBMCs or CBMCs [4]; 4 h): no inhibition of transcription
- IFNα mRNA expression (PBMCs or CBMCs [4]; 24 h): no inhibition of transcription
- TNFα mRNA expression (PBMCs or CBMCs [4]; CNA 4 h, LPS 2 h): no significant difference in TNFα levels
- IFNγ (PBMCs or CBMCs [5]): induces Th1 polarising IL-12p70 and IFNγ in CBMCs; also recorded: significantly increased in CBMCs compared to PBMCs; also recorded: neonates produced significantly higher levels of both IL-12p70 and IFNγ
- IL-10 (PBMCs or CBMCs [5]): low but detectable, with no significant difference between adult and cord blood cells noted; also recorded: no difference in levels of anti-inflammatory IL-10 or Th17-polarising IL-23 between neonates and adults
- IL-12p70 (PBMCs or CBMCs [5]): induces Th1 polarising IL-12p70 and IFNγ in CBMCs; also recorded: increased in CBMCs compared to PBMCs; also recorded: significantly enhanced response to Poly(I:C) transfection was found in CBMCs compared to PBMCs; also recorded: neonates produced significantly higher levels of both IL-12p70 and IFNγ
- IL-23 (PBMCs or CBMCs [5]): low but detectable, with no significant difference between adult and cord blood cells noted; also recorded: no difference in levels of anti-inflammatory IL-10 or Th17-polarising IL-23 between neonates and adults
- IFNα secretion (ELISA) (PBMCs or CBMCs [2]): equivalent or enhanced CNA sensor responses in neonates compared to adults
- CXCL10 protein secretion (PBMCs or CBMCs [6]): no significant difference in the CXCL10 response between PBMCs or CBMCs
- TNFα production (PBMCs or CBMCs [1]): significantly more TNFα production from neonatal cells than from adult cells
- increase in IRF3 activation above basal levels (IRF3): ~80%
- TNFα production across age groups [7]: maintenance of cord blood responsiveness to CNA was also observed for both Poly(I:C) and Poly(dA:dT)-induced TNFα production to the age of 24 months
- production of type I IFN across age groups [7]: maintained throughout childhood; also recorded: maintained up to the age of two
- innate immune response in neonatal and/or paediatric blood [3]: robust innate immune response in neonatal and/or paediatric blood
- type I IFN (IFNα/β) production ([3]; neonatal CBMCs compared with adult PBMCs, stimulation 4, 8 or 24 h): no inhibition of type I IFN production in CBMCs when compared to PBMCs
- IRF7 activation (IRF7): not significantly activated
